Results on two molecules are retold here after patent US20080153849A1, “Process for the Preparation of Crystalline (6Rrs)-N(5)-Formyl-5,6,7,8-Tetrahydrofolic Acid” (priority 2004, published 2008).

The series in a line: Storage stability of the solid in a refrigerator (HPLC assay and purity). Format: physicochemical. The note with it: for Assay (HPLC) / Purity (HPLC): solid stored at 2° C. to 8° C. The protocol: This solid was stored at a temperature from 2° C. to 8° C. in a refrigerator. Thereby the following stability dates were obtained for this solid: […]

Molecules are shown by their SMILES.

As for `Nc1nc2c(c(=O)[nH]1)N(C=O)C(CNc1ccc(C(=O)N[C@@H](CCC(=O)O)C(=O)O)cc1)CN2` (mixture of isomers) [Example 1, (6RS)-N(5)-formyl-5,6,7,8-tetrahydrofolic acid], the “Assay (HPLC)” value reads like this: (time 0 months) 99.4%; (time 3 months) 99.0%; (time 6 months) 99.1%; (time 9 months) 100.2%; (time 12 months) 99.9%. Further, the “Purity (HPLC)” value is on record as 99.78% (time 0 months); 99.79% (time 3 months); 99.75% (time 6 months); 99.82% (time 9 months); 99.79% (time 12 months).

Take `Nc1nc2c(c(=O)[nH]1)N(C=O)[C@@H](CNc1ccc(C(=O)N[C@@H](CCC(=O)O)C(=O)O)cc1)CN2` [Example 2, (6S)-N(5)-formyl-5,6,7,8-tetrahydrofolic acid]: the “Stability of the solid compared with crystalline (6RS)-folinic acid” value (general statement in words) was “stability comparable with the crystalline (6RS)-folinic acid”. The “Assay (HPLC)” value (time 0 months) came out at 99.0%; the “Assay (HPLC)” value (time 1 month) was found to be 98.5%; the “Assay (HPLC)” value (time 2 months) worked out at 98.1%; the “Assay (HPLC)” value (time 3 months) is 98.9%; the “Assay (HPLC)” value (time 6 months) came to 98.1%; the “Assay (HPLC)” value (time 12 months) stood at 97.8%. In addition, the “Purity (HPLC)” value is, setting by setting: (time 0 months) 99.2%; (time 1 month) 99.0%; (time 2 months) 98.9%; (time 3 months) 98.9%; (time 6 months) 98.4%; (time 12 months) 97.2%.
